Laboratory results published in patent publication US7124068B2, “Crystal structure of a deacetylase and inhibitors thereof” (Sloan-Kettering Institute for Cancer Research, priority 1999, dated 2006).

Columns and labels:
[1] = system: HDLP; experiment: Histone deacetylase assay with [3H] acetyl-labeled histone substrate; assay type: biochemical, Aquifex aeolicus; conditions: in vitro
[2] = system: PLZF-RARα APL cells; conditions: cited from earlier work
[3] = system: lung tumors; conditions: mice; cited from earlier work
[4] = system: mammary tumors; conditions: rats; cited from earlier work

Row | Compound | inhibition of HDLP histone deacetylase activity [1] | responsiveness to retinoic acid-induced differentiation [2] | preventing the formation of lung tumors [3] | preventing the formation of mammary tumors [4]
1 | CC(/C=C/C(=O)NO)=C\[C@@H](C)C(=O)c1ccc(N(C)C)cc1 [TSA, trichostatin A] | inhibited | enhances their responsiveness |  | 
2 | suberoylanilide hydroxamic acid [SAHA] |  |  | effective | effective
